Measurements: US11807644B2 (PMV Pharmaceuticals, Inc., priority 2020, dated 2023)

target: T1, recombinant His-tag Y220C p53 DBD protein (Homo sapiens, UniProt P04637, Y220C); experiment: In vitro DNA binding activity assay (TR-FRET): binding of His-tag Y220C p53 DBD to biotin-labeled consensus DNA; format: biochemical; conditions: SC150 = concentration to increase DNA binding by […], His-tag Y220C p53 DBD, biotin-labeled consensus DNA
T1 construct: recombinant His-tag Y220C p53 DBD protein (amino acids #˜94-312)
Protocol: DNA binding activity of the compounds was measured using a TR-FRET (Time-Resolved Fluorescence Resonance Energy Transfer) assay in which recombinant His-tag Y220C p53 DBD protein binds to biotin-labeled consensus DNA. Binding of recombinant His-tag Y220C p53 DBD protein and biotin-labeled consensus DNA was registered by the FRET (fluorescence resonance energy transfer) between allophycocyanin (APC) conjugated anti-His tag antibody and Europium-(Eu) conjugated Streptavidin.
The compounds of TABLES 1-9 (2 mM stock in dimethylsulfoxide) were diluted 3-fold in series in dimethylsulfoxide. 1.2 μL of a compound solution was added to each well of 384-well polypropylene black plates (NUNC). Thirty μL per well of 181 nM recombinant His-tag Y220C p53 DBD protein (amino acids #˜94-312; SEQ ID NO: 1) and 6.1 nM of APC conjugated anti-His tag antibody (Columbia Biosciences) in ice-cold Assay Buffer 1 (50 mM Tris-HCl, pH 7.4, 75 mM KCl, 0.75 mM DTT and 0.2 mg/ml, BSA) were added. As a background control. 30 μL of Assay Buffer 1 containing 6.1 nM of APC anti-His antibody (No Y220C protein) was also added into a second set of serially diluted compound plates. The samples were spun by centrifuge at 1,200 rpm (Eppendorf 5810R Plate centrifuge) for 1 minute and incubated at room temperature (20° C.) for 15 min. The samples were then further incubated at either 27° C. or 29° C. for 60 min. […] The samples were spun by centrifuge at 1,200 rpm for 1 min and incubated at room temperature (20° C.) for 20 min. Assay signals were monitored by reading excitation at 340 nm, and emission fluorescence at 615 nm and 665 nm on an Envision® reader. Normalized TR-FRET (time-resolved fluorescence resonance energy transfer) assay signal (Rn) was calculated by the formula: Rn=[(A−Ba−C×(D−Bd))/(D−Bd)]×(D−Bd) Wherein: • A is the fluorescence intensity of the sample at 665 nm; • D is the fluorescence intensity of the sample at 615 nm; • Ba and Bd are plate backgrounds at 665 nm and 615 nm, respectively; and • Dc is the fluorescence intensity of 0.67 nM Eu-SA in the assay buffer at 615 nm.
The cross-talk factor (C) was determined by the following formula: C=(Ac−Ba)/(Dc−Bd) wherein Ac is the fluorescence intensity of 0.67 nM Europium (Eu) conjugated Streptavidin in the assay buffer at 665 nm.

**Q.** For `CCN1CC[C@@H](Nc2cccc3c2cc(-c2noc(CNC(=O)c4ccn(C(C)(C)C)c4)n2)n3CC(F)(F)F)[C@@H](F)C1` [Compound 298B, 1-tert-butyl-N-{[3-(4-{[(3S,4R)-1-ethyl-3-fluoropiperidin-4-yl]amino}-1-(2,2,2-trifluoroethyl)-1H-indol-2-yl)-1,2,4-oxadiazol-5-yl]methyl}-1H-pyrrole-3-carboxamide], which “Y220C SC150 (μM)” value is on record?
**A.** * (* = 0 μM ≤ SC150 < 0.1 μM)

**Q.** `COCCn1cncc1C(=O)NCc1nc(-c2cc3c(N[C@@H]4CCN(C)C[C@@H]4F)cccc3n2CC(F)(F)F)no1` [Compound 268B, N-{[3-(4-{[(3S,4R)-3-fluoro-1-methylpiperidin-4-yl]amino}-1-(2,2,2-trifluoroethyl)-1H-indol-2-yl)-1,2,4-oxadiazol-5-yl]methyl}-1-(2-methoxyethyl)-1H-imidazole-5-carboxamide] was tested. Which “Y220C SC150 (μM)” value did it give?
**A.** * (* = 0 μM ≤ SC150 < 0.1 μM)

**Q.** For `Cc1cscc1C(=O)NCc1nc(-c2cc3c(N[C@@H]4CCN(C)C[C@@H]4F)cccc3n2CC(F)(F)F)no1` [Compound 209B, N-{[3-(4-{[(3S,4R)-3-fluoro-1-methylpiperidin-4-yl]amino}-1-(2,2,2-trifluoroethyl)-1H-indol-2-yl)-1,2,4-oxadiazol-5-yl]methyl}-4-methylthiophene-3-carboxamide], which “Y220C SC150 (μM)” value is on record?
**A.** * (* = 0 μM ≤ SC150 < 0.1 μM)

**Q.** With `CN1CC[C@@H](Nc2cccc3c2cc(-c2nnc(CNC(=O)C4COC4)s2)n3CC(F)(F)F)[C@@H](F)C1` (racemic) [Compound 36B, (+/−)-N-{[5-(4-{[(3R,4S)-3-fluoro-1-methylpiperidin-4-yl]amino}-1-(2,2,2-trifluoroethyl)-1H-indol-2-yl)-1,3,4-thiadiazol-2-yl]methyl}oxetane-3-carboxamide] as the compound, how does the “Y220C SC150 (μM)” value read?
**A.** ** (** = 0.1 μM ≤ SC150 < 0.5 μM)

**Q.** For `CN1CC[C@@H](Nc2cccc3c2cc(-c2noc(CNC(=O)c4ccn(C(C)(C)C)n4)n2)n3CC(F)(F)F)[C@@H](F)C1` [Compound 529B, 1-tert-butyl-N-{[3-(4-{[(3S,4R)-3-fluoro-1-methylpiperidin-4-yl]amino}-1-(2,2,2-trifluoroethyl)-1H-indol-2-yl)-1,2,4-oxadiazol-5-yl]methyl}-1H-pyrazole-3-carboxamide], which “Y220C SC150 (μM)” value is on record?
**A.** * (* = 0 μM ≤ SC150 < 0.1 μM)

**Q.** How did the “Y220C SC150 (μM)” value turn out when `CN1CC[C@@H](F)[C@@H](Nc2cccc3c2cc(-c2noc(CNC(=O)c4ccn(C(C)(C)C)c4)n2)n3CC(F)(F)F)C1` [Compound 415B, 1-tert-butyl-N-{[3-(4-{[(3S,4R)-4-fluoro-1-methylpiperidin-3-yl]amino}-1-(2,2,2-trifluoroethyl)-1H-indol-2-yl)-1,2,4-oxadiazol-5-yl]methyl}-1H-pyrrole-3-carboxamide] was run?
**A.** * (* = 0 μM ≤ SC150 < 0.1 μM)

**Q.** Which “Y220C SC150 (μM)” value does the source give for `C[C@@H]1CN(C)CC[C@@H]1Nc1cccc2c1cc(-c1noc(CNC(=O)c3cnn(C(C)(C)C)c3)n1)n2CC(F)(F)F` [Compound 511B, 1-tert-butyl-N-{[3-(4-{[(3R,4S)-1,3-dimethylpiperidin-4-yl]amino}-1-(2,2,2-trifluoroethyl)-1H-indol-2-yl)-1,2,4-oxadiazol-5-yl]methyl}-1H-pyrazole-4-carboxamide] here?
**A.** * (* = 0 μM ≤ SC150 < 0.1 μM)

**Q.** `COCC(C)(C)n1cc(C(=O)NCc2nc(-c3cc4c(N[C@@H]5CCN(C)C[C@@H]5F)cccc4n3CC(F)(F)F)no2)cn1` [Compound 391B, N-{[3-(4-{[(3S,4R)-3-fluoro-1-methylpiperidin-4-yl]amino}-1-(2,2,2-trifluoroethyl)-1H-indol-2-yl)-1,2,4-oxadiazol-5-yl]methyl}-1-(1-methoxy-2-methylpropan-2-yl)-1H-pyrazole-4-carboxamide] was tested. Which “Y220C SC150 (μM)” value did it give?
**A.** * (* = 0 μM ≤ SC150 < 0.1 μM)

**Q.** With `CC(C)c1nc(C(=O)NCc2nc(-c3cc4c(N[C@@H]5CCN(C)C[C@@H]5F)cccc4n3CC(F)(F)F)no2)co1` [Compound 430B, N-{[3-(4-{[(3S,4R)-3-fluoro-1-methylpiperidin-4-yl]amino}-1-(2,2,2-trifluoroethyl)-1H-indol-2-yl)-1,2,4-oxadiazol-5-yl]methyl}-2-(propan-2-yl)-1,3-oxazole-4-carboxamide] as the compound, how does the “Y220C SC150 (μM)” value read?
**A.** * (* = 0 μM ≤ SC150 < 0.1 μM)

**Q.** Which “Y220C SC150 (μM)” value does the source give for `CN1CCC(Nc2cccc3c2cc(-c2noc(CNC(=O)c4ccc(F)cc4)n2)n3CC(F)(F)F)CC1` [Compound 150B, 4-fluoro-N-[(3-{4-[(1-methylpiperidin-4-yl)amino]-1-(2,2,2-trifluoroethyl)-1H-indol-2-yl}-1,2,4-oxadiazol-5-yl)methyl]benzamide] here?
**A.** * (* = 0 μM ≤ SC150 < 0.1 μM)

**Q.** With `CC(C)(C)n1ccc(C(=O)NCc2nc(-c3cc4c(N[C@@H]5CCNC[C@@H]5F)cccc4n3CC(F)(F)F)no2)c1` [Compound 502B, 1-tert-butyl-N-{[3-(4-{[(3S,4R)-3-fluoropiperidin-4-yl]amino}-1-(2,2,2-trifluoroethyl)-1H-indol-2-yl)-1,2,4-oxadiazol-5-yl]methyl}-1H-pyrrole-3-carboxamide] as the compound, how does the “Y220C SC150 (μM)” value read?
**A.** * (* = 0 μM ≤ SC150 < 0.1 μM)

**Q.** How did the “Y220C SC150 (μM)” value turn out when `COC(=O)c1ccc(C(=O)NCc2nnc(-c3cc4c(NC5CCN(C)CC5)cccc4n3CC(F)(F)F)s2)cc1` [Compound 39B, methyl 4-{[(5-{4-[(1-methylpiperidin-4-yl)amino]-1-(2,2,2-trifluoroethyl)-1H-indol-2-yl}-1,3,4-thiadiazol-2-yl)methyl]carbamoyl}benzoate] was run?
**A.** * (* = 0 μM ≤ SC150 < 0.1 μM)

**Q.** `CN1CC[C@@H](Nc2cccc3c2cc(-c2noc(CNc4cccc5c4cnn5C)n2)n3CC(F)(F)F)[C@@H](F)C1` [Compound 463B, N-{[3-(4-{[(3S,4R)-3-fluoro-1-methylpiperidin-4-yl]amino}-1-(2,2,2-trifluoroethyl)-1H-indol-2-yl)-1,2,4-oxadiazol-5-yl]methyl}-1-methyl-1H-indazol-4-amine] was tested. Which “Y220C SC150 (μM)” value did it give?
**A.** * (* = 0 μM ≤ SC150 < 0.1 μM)

**Q.** Which “Y220C SC150 (μM)” value does the source give for `CN1CCC(Nc2cccc3c2cc(-c2noc(CNC(=O)Nc4ccccc4)n2)n3CC(F)(F)F)CC1` [Compound 153B, 3-[(3-{4-[(1-methylpiperidin-4-yl)amino]-1-(2,2,2-trifluoroethyl)-1H-indol-2-yl}-1,2,4-oxadiazol-5-yl)methyl]-1-phenylurea] here?
**A.** * (* = 0 μM ≤ SC150 < 0.1 μM)

**Q.** With `CC(C)(C)n1ccc(C(=O)NCc2nc(-c3cc4c(N[C@H]5CC[C@H](F)CC5)cccc4n3CC(F)(F)F)no2)c1` [Compound 354B, 1-tert-butyl-N-{[3-(4-{[(1r,4r)-4-fluorocyclohexyl]amino}-1-(2,2,2-trifluoroethyl)-1H-indol-2-yl)-1,2,4-oxadiazol-5-yl]methyl}-1H-pyrrole-3-carboxamide] as the compound, how does the “Y220C SC150 (μM)” value read?
**A.** * (* = 0 μM ≤ SC150 < 0.1 μM)

**Q.** Which “Y220C SC150 (μM)” value does the source give for `CC(C)n1ccc(C(=O)NCc2nc(-c3cc4c(N[C@@H]5CCN(C)C[C@@H]5F)cccc4n3CC(F)(F)F)no2)c1` [Compound 199B, N-{[3-(4-{[(3S,4R)-3-fluoro-1-methylpiperidin-4-yl]amino}-1-(2,2,2-trifluoroethyl)-1H-indol-2-yl)-1,2,4-oxadiazol-5-yl]methyl}-1-(propan-2-yl)-1H-pyrrole-3-carboxamide] here?
**A.** * (* = 0 μM ≤ SC150 < 0.1 μM)

same assay, conditions: concentration to increase DNA binding by […], incubated at either 27° C. or 29° C. for 60 min

**Q.** How did the “SC150 (μM)” value turn out when `COC(=O)Nc1cccc(-c2cc3c(NC4CCS(=O)(=O)CC4)cccc3n2CC(F)(F)F)c1` [Compound 25A, methyl N-(3-{4-[(1,1-dioxo-1λ^6-thian-4-yl)amino]-1-(2,2,2-trifluoroethyl)-1H-indol-2-yl}phenyl)carbamate] was run?
**A.** +++ (+++ = 5 μM ≤ SC150 < 10 μM)

**Q.** Which “SC150 (μM)” value does the source give for `CN1CC[C@H](Nc2cccc3c2cc(-c2ccc(CNc4ccc(S(C)(=O)=O)cc4)cc2)n3CC(F)(F)F)[C@H](F)C1` [Compound 44A, N-[(3R,4S)-3-fluoro-1-methylpiperidin-4-yl]-2-(4-{[(4-methanesulfonylphenyl)amino]methyl}phenyl)-1-(2,2,2-trifluoroethyl)-1H-indol-4-amine] here?
**A.** + (+ = 0 μM ≤ SC150 < 2 μM)

**Q.** Which “SC150 (μM)” value does the source give for `COc1cccc(-c2cc3c(NC4CCS(=O)(=O)CC4)cccc3n2CC(F)(F)F)c1` [Compound 13A, 4-{[2-(3-methoxyphenyl)-1-(2,2,2-trifluoroethyl)-1H-indol-4-yl]amino}-1λ^6-thiane-1,1-dione] here?
**A.** +++ (+++ = 5 μM ≤ SC150 < 10 μM)
